Results: the supplement of paper PMC6315032

Key:
Experiment in all cases: apparent dissociation constant (pKDapp, Kinobeads competition, Cheng-Prusoff corrected) (-log10 M); higher = tighter binding
[1] = target: STK17B (UniProt O94768); conditions: affinity matrix / lysate: Kinobeads, mixed HEK293/K-562/placenta lysate
[2] = target: PKMYT1 (UniProt Q99640); conditions: affinity matrix / lysate: Kinobeads, mixed HEK293/K-562/placenta lysate
[3] = target: MST1R (UniProt Q04912); conditions: affinity matrix / lysate: Kinobeads, mixed HEK293/K-562/placenta lysate
[4] = target: MAPKAPK5 (UniProt Q8IW41); conditions: affinity matrix / lysate: Kinobeads, mixed HEK293/K-562/placenta lysate
[5] = target: MAP2K6 (UniProt P52564); conditions: affinity matrix / lysate: Kinobeads, mixed HEK293/K-562/placenta lysate
[6] = target: TNK2 (UniProt Q07912); conditions: affinity matrix / lysate: Kinobeads, mixed HEK293/K-562/placenta lysate
TNK2, sequence (Q07912 whole entry, looked up): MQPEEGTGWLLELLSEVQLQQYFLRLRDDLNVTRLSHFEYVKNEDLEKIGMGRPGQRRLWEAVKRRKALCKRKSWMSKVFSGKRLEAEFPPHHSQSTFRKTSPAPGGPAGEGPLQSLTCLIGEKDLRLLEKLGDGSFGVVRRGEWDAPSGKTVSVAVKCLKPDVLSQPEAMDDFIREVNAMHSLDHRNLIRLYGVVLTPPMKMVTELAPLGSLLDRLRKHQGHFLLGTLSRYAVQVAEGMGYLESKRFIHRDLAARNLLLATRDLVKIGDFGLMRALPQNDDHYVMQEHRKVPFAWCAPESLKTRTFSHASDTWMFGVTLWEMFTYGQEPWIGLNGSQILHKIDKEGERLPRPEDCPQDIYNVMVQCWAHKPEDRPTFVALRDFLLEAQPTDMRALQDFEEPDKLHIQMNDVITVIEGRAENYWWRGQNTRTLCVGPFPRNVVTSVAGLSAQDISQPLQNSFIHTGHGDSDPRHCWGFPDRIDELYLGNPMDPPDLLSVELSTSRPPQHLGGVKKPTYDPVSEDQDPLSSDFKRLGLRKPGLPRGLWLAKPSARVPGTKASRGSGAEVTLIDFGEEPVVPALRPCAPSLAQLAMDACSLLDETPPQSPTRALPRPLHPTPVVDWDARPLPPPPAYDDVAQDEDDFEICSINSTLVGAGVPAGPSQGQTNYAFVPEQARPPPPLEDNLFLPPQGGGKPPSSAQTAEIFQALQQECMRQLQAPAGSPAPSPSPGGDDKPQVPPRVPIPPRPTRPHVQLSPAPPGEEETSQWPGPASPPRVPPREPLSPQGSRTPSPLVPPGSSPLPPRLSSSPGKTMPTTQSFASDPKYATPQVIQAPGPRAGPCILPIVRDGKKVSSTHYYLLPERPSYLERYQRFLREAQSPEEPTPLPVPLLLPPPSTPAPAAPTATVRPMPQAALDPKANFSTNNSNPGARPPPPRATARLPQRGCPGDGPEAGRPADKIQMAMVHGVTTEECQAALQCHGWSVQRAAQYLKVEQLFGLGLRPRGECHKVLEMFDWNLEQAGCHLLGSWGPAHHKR

[7] = target: PIK3CA (UniProt P42336); conditions: affinity matrix / lysate: Lipid Kinobeads, mixed HeLa/Jurkat/K-562 lysate
[8] = target: CAMK2D (UniProt Q13557); conditions: affinity matrix / lysate: Kinobeads, mixed HEK293/K-562/placenta lysate
CAMK2D, sequence (Q13557 whole entry): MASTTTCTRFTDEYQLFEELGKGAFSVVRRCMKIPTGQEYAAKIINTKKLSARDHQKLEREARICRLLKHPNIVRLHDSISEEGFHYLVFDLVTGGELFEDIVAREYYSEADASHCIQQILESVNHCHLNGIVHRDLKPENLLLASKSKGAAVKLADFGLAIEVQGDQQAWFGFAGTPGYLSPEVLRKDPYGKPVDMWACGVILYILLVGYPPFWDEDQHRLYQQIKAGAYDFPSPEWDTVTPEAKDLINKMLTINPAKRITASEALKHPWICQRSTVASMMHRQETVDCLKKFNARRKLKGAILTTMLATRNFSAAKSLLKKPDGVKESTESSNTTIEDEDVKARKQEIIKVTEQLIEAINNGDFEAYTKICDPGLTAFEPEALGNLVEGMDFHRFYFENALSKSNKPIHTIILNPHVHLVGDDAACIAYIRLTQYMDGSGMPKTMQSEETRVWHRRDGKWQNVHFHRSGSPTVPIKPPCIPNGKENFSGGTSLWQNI

[9] = target: TGFBR1 (UniProt P36897); conditions: affinity matrix / lysate: Kinobeads, mixed HEK293/K-562/placenta lysate
TGFBR1, sequence (P36897 whole entry): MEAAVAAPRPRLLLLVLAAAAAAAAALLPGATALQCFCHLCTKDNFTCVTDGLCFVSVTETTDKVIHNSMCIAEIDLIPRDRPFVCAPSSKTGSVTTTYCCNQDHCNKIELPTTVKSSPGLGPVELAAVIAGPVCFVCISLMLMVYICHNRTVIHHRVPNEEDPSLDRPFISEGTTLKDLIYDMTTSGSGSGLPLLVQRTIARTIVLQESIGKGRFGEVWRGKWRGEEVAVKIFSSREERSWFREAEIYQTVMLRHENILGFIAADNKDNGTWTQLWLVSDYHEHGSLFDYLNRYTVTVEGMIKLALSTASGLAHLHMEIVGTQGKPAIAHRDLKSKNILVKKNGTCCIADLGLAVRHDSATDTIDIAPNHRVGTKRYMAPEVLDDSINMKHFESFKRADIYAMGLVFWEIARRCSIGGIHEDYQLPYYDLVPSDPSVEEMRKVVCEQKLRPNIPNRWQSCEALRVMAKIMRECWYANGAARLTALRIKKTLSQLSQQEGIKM

[10] = target: EPHA4 (UniProt P54764); conditions: affinity matrix / lysate: Kinobeads, mixed HEK293/K-562/placenta lysate
EPHA4, sequence (P54764 whole entry): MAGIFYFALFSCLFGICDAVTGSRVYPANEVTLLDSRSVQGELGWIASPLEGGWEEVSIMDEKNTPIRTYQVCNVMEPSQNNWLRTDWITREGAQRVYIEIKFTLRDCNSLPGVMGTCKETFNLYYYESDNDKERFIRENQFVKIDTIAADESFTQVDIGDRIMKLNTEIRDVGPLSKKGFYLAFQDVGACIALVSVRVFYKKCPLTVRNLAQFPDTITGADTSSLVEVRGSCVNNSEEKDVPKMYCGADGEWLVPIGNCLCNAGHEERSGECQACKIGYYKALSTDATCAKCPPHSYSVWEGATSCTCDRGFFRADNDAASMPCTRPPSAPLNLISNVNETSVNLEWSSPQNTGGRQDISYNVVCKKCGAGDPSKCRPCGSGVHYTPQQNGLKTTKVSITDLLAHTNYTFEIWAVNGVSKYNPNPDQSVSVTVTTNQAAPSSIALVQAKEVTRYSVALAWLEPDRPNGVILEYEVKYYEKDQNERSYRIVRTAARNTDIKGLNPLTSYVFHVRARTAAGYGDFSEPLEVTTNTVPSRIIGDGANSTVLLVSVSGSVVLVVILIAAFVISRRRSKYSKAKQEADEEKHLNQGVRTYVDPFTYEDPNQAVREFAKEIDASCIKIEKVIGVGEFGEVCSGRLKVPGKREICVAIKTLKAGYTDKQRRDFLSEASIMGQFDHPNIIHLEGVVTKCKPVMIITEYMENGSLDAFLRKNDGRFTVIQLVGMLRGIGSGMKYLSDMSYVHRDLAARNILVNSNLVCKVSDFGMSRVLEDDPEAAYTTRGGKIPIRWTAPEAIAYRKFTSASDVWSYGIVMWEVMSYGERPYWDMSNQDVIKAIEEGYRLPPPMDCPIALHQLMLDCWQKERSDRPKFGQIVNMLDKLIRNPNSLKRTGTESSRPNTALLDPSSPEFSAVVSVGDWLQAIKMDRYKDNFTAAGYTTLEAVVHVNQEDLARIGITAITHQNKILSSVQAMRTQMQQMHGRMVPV

[11] = target: NEK9 (UniProt Q8TD19); conditions: affinity matrix / lysate: Kinobeads, mixed HEK293/K-562/placenta lysate
[12] = target: NUAK1 (UniProt O60285); conditions: affinity matrix / lysate: Kinobeads, mixed HEK293/K-562/placenta lysate
[13] = target: IRAK4 (UniProt Q9NWZ3); conditions: affinity matrix / lysate: Kinobeads, mixed HEK293/K-562/placenta lysate
[14] = target: PKN1 (UniProt Q16512); conditions: affinity matrix / lysate: Kinobeads, mixed HEK293/K-562/placenta lysate
[15] = target: DAPK1 (UniProt P53355); conditions: affinity matrix / lysate: Kinobeads, mixed HEK293/K-562/placenta lysate
[16] = target: TAOK1 (UniProt Q7L7X3); conditions: affinity matrix / lysate: Kinobeads, mixed HEK293/K-562/placenta lysate
[17] = target: PIK3R4 (UniProt Q99570); conditions: affinity matrix / lysate: Lipid Kinobeads, mixed HeLa/Jurkat/K-562 lysate
PIK3R4, sequence (Q99570 whole entry): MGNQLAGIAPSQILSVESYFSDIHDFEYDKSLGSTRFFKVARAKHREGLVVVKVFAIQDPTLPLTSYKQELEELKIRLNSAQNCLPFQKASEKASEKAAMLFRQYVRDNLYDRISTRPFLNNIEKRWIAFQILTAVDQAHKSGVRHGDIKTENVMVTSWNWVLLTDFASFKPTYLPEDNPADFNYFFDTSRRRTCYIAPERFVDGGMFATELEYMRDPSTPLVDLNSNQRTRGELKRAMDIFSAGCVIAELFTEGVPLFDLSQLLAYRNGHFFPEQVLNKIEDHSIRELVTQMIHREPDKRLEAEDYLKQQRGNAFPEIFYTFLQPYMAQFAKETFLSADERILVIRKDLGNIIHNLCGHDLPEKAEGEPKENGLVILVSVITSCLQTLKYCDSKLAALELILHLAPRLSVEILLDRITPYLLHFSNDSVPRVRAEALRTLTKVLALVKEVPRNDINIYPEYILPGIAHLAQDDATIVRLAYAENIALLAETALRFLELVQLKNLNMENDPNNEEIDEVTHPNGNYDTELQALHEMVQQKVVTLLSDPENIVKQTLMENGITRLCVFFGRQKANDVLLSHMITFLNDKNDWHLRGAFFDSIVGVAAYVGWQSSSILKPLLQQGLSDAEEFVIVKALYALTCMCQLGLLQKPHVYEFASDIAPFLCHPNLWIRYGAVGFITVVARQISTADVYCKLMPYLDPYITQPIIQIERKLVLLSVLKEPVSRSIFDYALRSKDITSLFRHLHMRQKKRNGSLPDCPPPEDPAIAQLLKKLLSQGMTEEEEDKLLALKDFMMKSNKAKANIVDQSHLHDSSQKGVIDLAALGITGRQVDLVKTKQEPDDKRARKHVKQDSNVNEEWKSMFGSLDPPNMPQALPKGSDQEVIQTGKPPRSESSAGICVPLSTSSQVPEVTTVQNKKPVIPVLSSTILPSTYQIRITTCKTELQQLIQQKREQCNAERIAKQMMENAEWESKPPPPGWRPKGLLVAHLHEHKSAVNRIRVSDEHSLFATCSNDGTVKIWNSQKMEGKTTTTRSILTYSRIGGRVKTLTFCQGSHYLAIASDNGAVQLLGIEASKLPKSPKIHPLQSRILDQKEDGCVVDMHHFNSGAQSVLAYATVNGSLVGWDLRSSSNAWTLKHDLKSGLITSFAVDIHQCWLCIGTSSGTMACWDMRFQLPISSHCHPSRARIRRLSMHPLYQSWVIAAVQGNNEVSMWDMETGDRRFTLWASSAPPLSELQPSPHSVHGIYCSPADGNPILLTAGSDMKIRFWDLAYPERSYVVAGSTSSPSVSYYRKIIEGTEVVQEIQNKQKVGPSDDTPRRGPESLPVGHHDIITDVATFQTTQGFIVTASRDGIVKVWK

[18] = target: EPHA1 (UniProt P21709); conditions: affinity matrix / lysate: Kinobeads, mixed HEK293/K-562/placenta lysate
[19] = target: CHUK (UniProt O15111); conditions: affinity matrix / lysate: Kinobeads, mixed HEK293/K-562/placenta lysate
[20] = target: PDGFRB (UniProt P09619); conditions: affinity matrix / lysate: Kinobeads, mixed HEK293/K-562/placenta lysate
[21] = target: AAK1 (UniProt Q2M2I8); conditions: affinity matrix / lysate: Kinobeads, mixed HEK293/K-562/placenta lysate
[22] = target: MAP2K3 (UniProt P46734); conditions: affinity matrix / lysate: Kinobeads, mixed HEK293/K-562/placenta lysate
[23] = target: HIPK3 (UniProt Q9H422); conditions: affinity matrix / lysate: Kinobeads, mixed HEK293/K-562/placenta lysate

PKMYT1, sequence (Q99640 whole entry): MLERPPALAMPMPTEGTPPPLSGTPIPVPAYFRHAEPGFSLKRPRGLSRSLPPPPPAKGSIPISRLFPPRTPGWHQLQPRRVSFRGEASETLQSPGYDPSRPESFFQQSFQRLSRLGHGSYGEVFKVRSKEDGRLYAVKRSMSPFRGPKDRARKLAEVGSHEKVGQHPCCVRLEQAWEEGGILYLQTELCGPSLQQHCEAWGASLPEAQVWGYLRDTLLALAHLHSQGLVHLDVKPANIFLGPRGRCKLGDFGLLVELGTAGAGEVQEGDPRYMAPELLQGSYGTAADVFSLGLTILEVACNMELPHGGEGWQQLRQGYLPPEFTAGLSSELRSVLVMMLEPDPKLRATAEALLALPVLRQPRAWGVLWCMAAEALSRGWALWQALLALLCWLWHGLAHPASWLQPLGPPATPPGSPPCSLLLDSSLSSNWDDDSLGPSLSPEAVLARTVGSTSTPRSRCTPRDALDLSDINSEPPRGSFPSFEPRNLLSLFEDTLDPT

Row | apparent dissociation constant (-log10 M) [1] | apparent dissociation constant (-log10 M) [2] | apparent dissociation constant (-log10 M) [3] | apparent dissociation constant (-log10 M) [4] | apparent dissociation constant (-log10 M) [5] | apparent dissociation constant (-log10 M) [6] | apparent dissociation constant (-log10 M) [7] | apparent dissociation constant (-log10 M) [8] | apparent dissociation constant (-log10 M) [9] | apparent dissociation constant (-log10 M) [10] | apparent dissociation constant (-log10 M) [12] | apparent dissociation constant (-log10 M) [13] | apparent dissociation constant (-log10 M) [14] | apparent dissociation constant (-log10 M) [15] | apparent dissociation constant (-log10 M) [16] | apparent dissociation constant (-log10 M) [17] | apparent dissociation constant (-log10 M) [18] | apparent dissociation constant (-log10 M) [19] | apparent dissociation constant (-log10 M) [20] | apparent dissociation constant (-log10 M) [21] | apparent dissociation constant (-log10 M) [22] | apparent dissociation constant (-log10 M) [23] | SMILES | apparent dissociation constant (-log10 M) [11]
1 | < 6 | < 6 | < 6 | < 6 | < 6 | < 6 | 7.17 | < 6 | < 6 | < 6 | < 6 | < 6 | < 6 | < 6 | < 6 | < 6 | < 6 | < 6 | < 6 | < 6 | < 6 | < 6 | COc1ccc(-c2ccc3c(N4CCOC[C@@H]4C)nc(N4CCOC[C@@H]4C)nc3n2)cc1CO [AZD8055] | < 6
2 | < 6 | < 6 | < 6 | < 6 | < 6 | < 6 | < 6 | < 6 | < 6 | < 6 | < 6 | < 6 | < 6 | < 6 | < 6 | < 6 | < 6 | < 6 | < 6 | < 6 | < 6 | < 6 | CCNC(=O)Nc1ccc(-c2nc(N3CCOC[C@@H]3C)c3c(n2)C(C)(C)S(=O)(=O)C3)cc1 [CZ415] | < 6
